Experimental data published in PubChem BioAssay (NCI).
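Protocol summary: plate cells (96-well), add compound at 5 concentrations, incubate 48 h, interpolate endpoints linearly. TGI marks complete inhibition of growth.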

Legend:
Experiment in all cases: NCI tumour cell line growth inhibition, 48 h
UACC-257 melanoma = system: UACC-257 melanoma
HCT-15 colon = system: HCT-15 colon
NCI-H460 lung = system: NCI-H460 lung
DU-145 prostate = system: DU-145 prostate
SNB-75 CNS = system: SNB-75 CNS
SW-620 colon = system: SW-620 colon
M14 melanoma = system: M14 melanoma
COLO 205 colon = system: COLO 205 colon
OVCAR-8 ovarian = system: OVCAR-8 ovarian
OVCAR-5 ovarian = system: OVCAR-5 ovarian
U251 CNS = system: U251 CNS
RPMI-8226 leukemia = system: RPMI-8226 leukemia
SK-MEL-28 melanoma = system: SK-MEL-28 melanoma
SR leukemia = system: SR leukemia
IGROV1 ovarian = system: IGROV1 ovarian
K-562 leukemia = system: K-562 leukemia
LOX IMVI melanoma = system: LOX IMVI melanoma
ACHN renal = system: ACHN renal
HOP-92 NSCLC = system: HOP-92 NSCLC
BT-549 breast = system: BT-549 breast
A498 renal = system: A498 renal
SNB-19 CNS = system: SNB-19 CNS
NCI-H522 lung = system: NCI-H522 lung
SF-295 CNS = system: SF-295 CNS
PC-3 prostate = system: PC-3 prostate
NCI-H23 lung = system: NCI-H23 lung
HS 578T breast = system: HS 578T breast
MDA-MB-231 breast = system: MDA-MB-231 breast
MCF7 breast = system: MCF7 breast
MALME-3M melanoma = system: MALME-3M melanoma
EKVX NSCLC = system: EKVX NSCLC
NCI/ADR-RES ovarian = system: NCI/ADR-RES ovarian
SF-539 CNS = system: SF-539 CNS
OVCAR-4 ovarian = system: OVCAR-4 ovarian
SK-MEL-2 melanoma = system: SK-MEL-2 melanoma
HT29 colon = system: HT29 colon
SN12C renal = system: SN12C renal
CAKI-1 renal = system: CAKI-1 renal
SK-MEL-5 melanoma = system: SK-MEL-5 melanoma
SF-268 CNS = system: SF-268 CNS
A549 NSCLC = system: A549 NSCLC
NCI-H226 lung = system: NCI-H226 lung
SK-OV-3 ovarian = system: SK-OV-3 ovarian
MDA-MB-435 = system: MDA-MB-435
UO-31 renal = system: UO-31 renal
MDA-N = system: MDA-N
HCT-116 colon = system: HCT-116 colon
OVCAR-3 ovarian = system: OVCAR-3 ovarian
KM12 colon = system: KM12 colon
MOLT-4 leukemia = system: MOLT-4 leukemia
T-47D breast = system: T-47D breast
786-0 renal = system: 786-0 renal
HL-60(TB) leukemia = system: HL-60(TB) leukemia
HOP-62 NSCLC = system: HOP-62 NSCLC
HCC-2998 colon = system: HCC-2998 colon
TK-10 renal = system: TK-10 renal
RXF 393 renal = system: RXF 393 renal
UACC-62 melanoma = system: UACC-62 melanoma
CCRF-CEM leukemia = system: CCRF-CEM leukemia

## C/C(=N\NC(=S)Nc1ccccc1)c1nc2ncccc2[nH]1
UACC-257 melanoma
  TGI: 11.1 µM
HCT-15 colon
  TGI: 19.8 µM
NCI-H460 lung
  TGI: 13.8 µM
DU-145 prostate
  TGI: 18.2 µM
SNB-75 CNS
  TGI: 79.2 µM
SW-620 colon
  TGI: > 100 µM
M14 melanoma
  TGI: > 100 µM
COLO 205 colon
  TGI: > 100 µM
OVCAR-8 ovarian
  TGI: 16 µM
OVCAR-5 ovarian
  TGI: 61 µM
U251 CNS
  TGI: 16.9 µM
RPMI-8226 leukemia
  TGI: 84.4 µM
SK-MEL-28 melanoma
  TGI: 6.79 µM
SR leukemia
  TGI: > 100 µM
IGROV1 ovarian
  TGI: 24.2 µM
K-562 leukemia
  TGI: 60.8 µM
LOX IMVI melanoma
  TGI: 15.8 µM
ACHN renal
  TGI: 47.8 µM
HOP-92 NSCLC
  TGI: > 100 µM
BT-549 breast
  TGI: 26.2 µM
A498 renal
  TGI: 33.1 µM
SNB-19 CNS
  TGI: 60.1 µM
NCI-H522 lung
  TGI: 17.1 µM
SF-295 CNS
  TGI: 18.3 µM
PC-3 prostate
  TGI: > 100 µM
NCI-H23 lung
  TGI: 48.7 µM
HS 578T breast
  TGI: 77.7 µM
MDA-MB-231 breast
  TGI: 55.5 µM
MCF7 breast
  TGI: 20.3 µM
MALME-3M melanoma
  TGI: 57.7 µM
EKVX NSCLC
  TGI: 6.12 µM
NCI/ADR-RES ovarian
  TGI: 22 µM
SF-539 CNS
  TGI: 6.8 µM
OVCAR-4 ovarian
  TGI: 47.4 µM
SK-MEL-2 melanoma
  TGI: 47 µM
HT29 colon
  TGI: 18.8 µM
SN12C renal
  TGI: 36.3 µM
CAKI-1 renal
  TGI: > 100 µM
SK-MEL-5 melanoma
  TGI: 15 µM
SF-268 CNS
  TGI: 39 µM
A549 NSCLC
  TGI: > 100 µM
NCI-H226 lung
  TGI: 13.2 µM
SK-OV-3 ovarian
  TGI: > 100 µM
MDA-MB-435
  TGI: 60.3 µM
UO-31 renal
  TGI: 7.47 µM
MDA-N
  TGI: > 100 µM
HCT-116 colon
  TGI: 14 µM
OVCAR-3 ovarian
  TGI: 17.1 µM
KM12 colon
  TGI: > 100 µM
MOLT-4 leukemia
  TGI: 16.8 µM
T-47D breast
  TGI: 24 µM
786-0 renal
  TGI: 74 µM
HL-60(TB) leukemia
  TGI: > 100 µM
HOP-62 NSCLC
  TGI: 59 µM
HCC-2998 colon
  TGI: 20.5 µM

## Oc1c(CN2CCOCC2)ccc(CN2CCOCC2)c1O
UACC-257 melanoma
  TGI: 88.7 µM
HCT-15 colon
  TGI: > 100 µM
NCI-H460 lung
  TGI: 82.8 µM
DU-145 prostate
  TGI: 83 µM
SNB-75 CNS
  TGI: 75.3 µM
SW-620 colon
  TGI: > 100 µM
M14 melanoma
  TGI: 84 µM
COLO 205 colon
  TGI: > 100 µM
OVCAR-8 ovarian
  TGI: > 100 µM
OVCAR-5 ovarian
  TGI: > 100 µM
U251 CNS
  TGI: > 100 µM
RPMI-8226 leukemia
  TGI: > 100 µM
SK-MEL-28 melanoma
  TGI: > 100 µM
TK-10 renal
  TGI: > 100 µM
SR leukemia
  TGI: > 100 µM
IGROV1 ovarian
  TGI: > 100 µM
K-562 leukemia
  TGI: > 100 µM
RXF 393 renal
  TGI: > 100 µM
LOX IMVI melanoma
  TGI: > 100 µM
UACC-62 melanoma
  TGI: 61.2 µM
ACHN renal
  TGI: > 100 µM
HOP-92 NSCLC
  TGI: > 100 µM
BT-549 breast
  TGI: > 100 µM
A498 renal
  TGI: > 100 µM
SNB-19 CNS
  TGI: > 100 µM
NCI-H522 lung
  TGI: > 100 µM
SF-295 CNS
  TGI: 96.3 µM
PC-3 prostate
  TGI: > 100 µM
NCI-H23 lung
  TGI: > 100 µM
HS 578T breast
  TGI: > 100 µM
MDA-MB-231 breast
  TGI: > 100 µM
MCF7 breast
  TGI: > 100 µM
MALME-3M melanoma
  TGI: > 100 µM
EKVX NSCLC
  TGI: > 100 µM
NCI/ADR-RES ovarian
  TGI: > 100 µM
SF-539 CNS
  TGI: > 100 µM
OVCAR-4 ovarian
  TGI: > 100 µM
SK-MEL-2 melanoma
  TGI: 94.6 µM
HT29 colon
  TGI: > 100 µM
SN12C renal
  TGI: 88.4 µM
CAKI-1 renal
  TGI: > 100 µM
SK-MEL-5 melanoma
  TGI: 67 µM
SF-268 CNS
  TGI: > 100 µM
A549 NSCLC
  TGI: > 100 µM
NCI-H226 lung
  TGI: 88.9 µM
SK-OV-3 ovarian
  TGI: > 100 µM
MDA-MB-435
  TGI: > 100 µM
UO-31 renal
  TGI: 72.2 µM
MDA-N
  TGI: > 100 µM
HCT-116 colon
  TGI: > 100 µM
OVCAR-3 ovarian
  TGI: 66.3 µM
KM12 colon
  TGI: > 100 µM
MOLT-4 leukemia
  TGI: > 100 µM
T-47D breast
  TGI: > 100 µM
786-0 renal
  TGI: > 100 µM
HL-60(TB) leukemia
  TGI: 27.2 µM
HOP-62 NSCLC
  TGI: > 100 µM
CCRF-CEM leukemia
  TGI: 12.9 µM
